From PMC4899218 (Molecular microbiology, 2016)

Experiments:
EmoA = EmoA (EDTA-degrading bacterium BNC1, UniProt Q9F9T3); assay: ITC; assay type: binding
[1] = biological target: EDTA monooxygenase (EmoA) from Chelativorans sp. BNC1 (Chelativorans sp. BNC1); assay: SEC-MALS

Molecule | Kd (EmoA) | stoichiometry N [1]
Cc1cc2nc3c(=O)[nH]c(=O)nc-3n(C[C@H](O)[C@H](O)[C@H](O)COP(=O)(O)O)c2cc1C [FMN] | 330 nM | –
EDTA monooxygenase (EmoA) from Chelativorans sp. BNC1 (enzyme) | – | 2
